Measurements taken from PubChem BioAssay AID330 (DTP/NCI, 2004).
“And” between values parts separate entries of the source, which are not always exact repeats. Equal entries are not always repeated. Inconclusive results and toxic doses are left out.

Tested on: P388 leukemia ip, CD2F1 mice, survival T/C
Assay: NCI In Vivo Anticancer Drug Screen. Data for tumor model P388 Leukemia (intraperitoneal) in CD2F1 (CDF1) mice
Conditions: endpoint: median survival time, higher = longer survival
In short: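 Mice carrying the transplanted tumor received test compound or vehicle. Survival was recorded in each group, and the value is the treated-group measurement divided by that of the vehicle-treated control group.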

[1] = dose: 50.0 mg/kg/injection, schedule: Q01DX009 (ip), vehicle: saline with Tween-80
[2] = dose: 100.0 mg/kg/injection, schedule: Q01DX009 (ip), vehicle: saline with Tween-80
[3] = dose: 200.0 mg/kg/injection, schedule: Q01DX009 (ip), vehicle: saline with Tween-80
[4] = dose: 100.0 mg/kg/injection, schedule: Q01DX001 (ip), vehicle: saline with Tween-80
[5] = dose: 100.0 mg/kg/injection, schedule: Q04DX002 (ip), vehicle: saline with Tween-80
[6] = dose: 200.0 mg/kg/injection, schedule: Q01DX001 (ip), vehicle: saline with Tween-80
[7] = dose: 200.0 mg/kg/injection, schedule: Q04DX002 (ip), vehicle: saline with Tween-80
[8] = dose: 50.0 mg/kg/injection, schedule: Q01DX009 (ip), vehicle: saline
[9] = dose: 100.0 mg/kg/injection, schedule: Q01DX009 (ip), vehicle: saline
[10] = dose: 200.0 mg/kg/injection, schedule: Q01DX009 (ip), vehicle: saline
[11] = dose: 60.0 mg/kg/injection, schedule: Q01DX005 (ip), vehicle: saline with Tween-80
[12] = dose: 120.0 mg/kg/injection, schedule: Q01DX005 (ip), vehicle: saline with Tween-80
[13] = dose: 240.0 mg/kg/injection, schedule: Q01DX005 (ip), vehicle: saline with Tween-80

COc1cc(C2OC(=O)c3ccccc3S2)ccc1O (stereo not given)
T/C (dose: 6.25 mg/kg/injection, schedule: Q01DX009 (ip), vehicle: Klucel (hydroxypropylcellulose) (HPC)): 114 % of control
T/C (dose: 12.5 mg/kg/injection, schedule: Q01DX009 (ip), vehicle: Klucel (hydroxypropylcellulose) (HPC)): 110 % of control and 119 % of control
T/C (dose: 25.0 mg/kg/injection, schedule: Q01DX009 (ip), vehicle: Klucel (hydroxypropylcellulose) (HPC)): 114 % of control and 120 % of control
T/C (dose: 50.0 mg/kg/injection, schedule: Q01DX009 (ip), vehicle: Klucel (hydroxypropylcellulose) (HPC)): 106 % of control
T/C (dose: 100.0 mg/kg/injection, schedule: Q01DX009 (ip), vehicle: Klucel (hydroxypropylcellulose) (HPC)): 118 % of control

O=C(CNC(c1ccccc1)(c1ccccc1)c1ccccc1)OC(c1ccccc1)c1ccccc1
T/C [1]: 104 % of control
T/C [2]: 118 % of control
T/C [3]: 90 % of control

Cc1ccc(C2N(CCN3C(=O)CS(=O)(=O)C3c3ccc(C)s3)C(=O)CS2(=O)=O)s1 (stereo not given)
T/C [4]: 101 % of control
T/C [5]: 97 % of control
T/C [6]: 94 % of control
T/C [7]: 87 % of control
T/C (dose: 400.0 mg/kg/injection, schedule: Q01DX001 (ip), vehicle: saline with Tween-80): 91 % of control

C=C(C)CCC(N)C(=O)O (stereo not given)
T/C (dose: 12.5 mg/kg/injection, schedule: Q01DX009 (ip), vehicle: saline): 107 % of control
T/C (dose: 25.0 mg/kg/injection, schedule: Q01DX009 (ip), vehicle: saline): 104 % of control
T/C [8]: 100 % of control

CC(=O)OC(C)(C)c1ccccc1[S+]1OC(C)(C)c2ccccc21 (stereo not given)
T/C (dose: 25.0 mg/kg/injection, schedule: Q01DX001 (ip), vehicle: other): 101 % of control
T/C (dose: 50.0 mg/kg/injection, schedule: Q01DX001 (ip), vehicle: other): 104 % of control
T/C (dose: 100.0 mg/kg/injection, schedule: Q01DX001 (ip), vehicle: other): 107 % of control

CCOC(=O)N1C(C(=O)c2ccc(C)cc2)N(C2CCCCC2)C(c2ccccc2)N1C(=O)OCC (stereo not given)
T/C (dose: 400.0 mg/kg/injection, schedule: Q01DX009 (ip), vehicle: saline with Tween-80): 86 % of control

CCN(C/C=C/CN(CC)C(=S)Nc1ccccc1)C(=S)Nc1ccccc1
T/C [8]: 106 % of control
T/C [9]: 108 % of control
T/C [10]: 106 % of control

CC(=O)C(Cc1ccccc1)NC(=O)C(F)(F)F (stereo not given)
T/C [1]: 93 % of control
T/C [2]: 90 % of control
T/C [3]: 98 % of control

CCCCCCCCCCCCCCCCN(O)C(=O)c1cnc[nH]1
T/C (dose: 100.0 mg/kg/injection, schedule: Q04DX003 (ip), vehicle: Klucel (hydroxypropylcellulose) (HPC)): 99 % of control
T/C (dose: 200.0 mg/kg/injection, schedule: Q04DX003 (ip), vehicle: Klucel (hydroxypropylcellulose) (HPC)): 101 % of control
T/C (dose: 400.0 mg/kg/injection, schedule: Q04DX003 (ip), vehicle: Klucel (hydroxypropylcellulose) (HPC)): 97 % of control

C=C(C)C(=O)OCCn1c(=O)c2c(ncn2C)n(C)c1=O
T/C [11]: 96 % of control
T/C [12]: 101 % of control
T/C [13]: 92 % of control

COc1ccccc1[B-]12OCC[N+]1(CNC(=O)c1ccccc1O)CCO2 (stereo not given)
T/C (dose: 50.0 mg/kg/injection, schedule: Q01DX005 (ip), vehicle: Klucel (hydroxypropylcellulose) (HPC)): 102 % of control
T/C (dose: 100.0 mg/kg/injection, schedule: Q01DX005 (ip), vehicle: Klucel (hydroxypropylcellulose) (HPC)): 103 % of control
T/C (dose: 200.0 mg/kg/injection, schedule: Q01DX005 (ip), vehicle: Klucel (hydroxypropylcellulose) (HPC)): 103 % of control

O=[N+]([O-])c1cccc2c1nnn2OC1CCCC1
T/C [4]: 102 % of control
T/C [6]: 98 % of control

COC[n+]1cccc(C2CCC[N+]2(C)C)c1 (stereo not given)
T/C [8]: 101 % of control
T/C [9]: 107 % of control
T/C [10]: 114 % of control

Cn1c(=O)c2nc(-c3cccc([N+](=O)[O-])c3)cnc2n(C)c1=O
T/C (dose: 100.0 mg/kg/injection, schedule: Q04DX002 (ip), vehicle: Klucel (hydroxypropylcellulose) (HPC)): 89 % of control
T/C (dose: 200.0 mg/kg/injection, schedule: Q04DX002 (ip), vehicle: Klucel (hydroxypropylcellulose) (HPC)): 95 % of control
T/C (dose: 400.0 mg/kg/injection, schedule: Q04DX002 (ip), vehicle: Klucel (hydroxypropylcellulose) (HPC)): 100 % of control

CC(=O)C1=CC(C)(C)OC1=O
T/C [5]: 103 % of control
T/C [7]: 109 % of control

NNC(=O)C(NC=O)C(N)=O (stereo not given)
T/C (dose: 12.5 mg/kg/injection, schedule: Q01DX009 (ip), vehicle: saline with Tween-80): 107 % of control
T/C (dose: 25.0 mg/kg/injection, schedule: Q01DX009 (ip), vehicle: saline with Tween-80): 100 % of control
T/C [1]: 98 % of control
T/C [8]: 88 % of control
T/C [10]: 92 % of control

N#CC1=C(O)/C(=C\C=C\c2ccccc2)N(C(=O)c2ccccc2)C1=N
T/C [11]: 105 % of control
T/C [12]: 100 % of control
T/C [13]: 104 % of control

COc1cc2c(cc1OC)C(OC)N(C)c1c-2ccc2cc3c(cc12)OCO3 (stereo not given)
T/C (dose: 2.0 mg/kg/injection, schedule: Q01DX009 (ip), vehicle: water): 122 % of control
T/C (dose: 2.0 mg/kg/injection, schedule: Q03HX008 (ip), vehicle: water): 109 % of control
T/C (dose: 4.0 mg/kg/injection, schedule: Q01DX009 (oral), vehicle: water): 104 % of control
T/C (dose: 4.0 mg/kg/injection, schedule: Q01DX009 (sc), vehicle: water): 104 % of control
T/C (dose: 4.0 mg/kg/injection, schedule: Q03HX008 (ip), vehicle: water): 122 % of control
T/C (dose: 8.0 mg/kg/injection, schedule: Q01DX009 (oral), vehicle: water): 100 % of control
T/C (dose: 8.0 mg/kg/injection, schedule: Q01DX009 (sc), vehicle: water): 100 % of control
T/C (dose: 8.0 mg/kg/injection, schedule: Q04DX003 (ip), vehicle: water): 119 % of control
T/C (dose: 16.0 mg/kg/injection, schedule: Q01DX001 (ip), vehicle: water): 107 % of control
T/C (dose: 16.0 mg/kg/injection, schedule: Q01DX009 (oral), vehicle: water): 101 % of control
T/C (dose: 16.0 mg/kg/injection, schedule: Q01DX009 (sc), vehicle: water): 97 % of control
T/C (dose: 16.0 mg/kg/injection, schedule: Q04DX003 (ip), vehicle: water): 122 % of control
T/C (dose: 16.0 mg/kg/injection, schedule: Q08DX002 (ip), vehicle: water): 109 % of control
T/C (dose: 25.0 mg/kg/injection, schedule: Q01DX009 (ip), vehicle: other): 158 % of control
T/C (dose: 32.0 mg/kg/injection, schedule: Q01DX001 (ip), vehicle: water): 104 % of control
T/C (dose: 32.0 mg/kg/injection, schedule: Q01DX009 (ip), vehicle: saline): 90 % of control
T/C (dose: 32.0 mg/kg/injection, schedule: Q01DX009 (oral), vehicle: water): 101 % of control
T/C (dose: 32.0 mg/kg/injection, schedule: Q01DX009 (sc), vehicle: water): 88 % of control
T/C (dose: 32.0 mg/kg/injection, schedule: Q04DX003 (ip), vehicle: water): 124 % of control
T/C (dose: 32.0 mg/kg/injection, schedule: Q08DX002 (ip), vehicle: water): 119 % of control
T/C (dose: 37.5 mg/kg/injection, schedule: Q01DX009 (ip), vehicle: saline with Tween-80): 118 % of control
T/C (dose: 44.0 mg/kg/injection, schedule: Q04DX003 (ip), vehicle: saline with Tween-80): 154 % of control
T/C (dose: 64.0 mg/kg/injection, schedule: Q01DX001 (ip), vehicle: water): 106 % of control
T/C (dose: 64.0 mg/kg/injection, schedule: Q01DX009 (oral), vehicle: water): 109 % of control
T/C (dose: 64.0 mg/kg/injection, schedule: Q04DX003 (ip), vehicle: water): 106 % of control
T/C (dose: 64.0 mg/kg/injection, schedule: Q08DX002 (ip), vehicle: water): 109 % of control
T/C (dose: 66.0 mg/kg/injection, schedule: Q04DX003 (ip), vehicle: saline with Tween-80): 154 % of control and 181 % of control
T/C (dose: 75.0 mg/kg/injection, schedule: Q01DX009 (ip), vehicle: saline with Tween-80): 86 % of control
T/C (dose: 150.0 mg/kg/injection, schedule: Q04DX003 (ip), vehicle: saline with Tween-80): 90 % of control

Cc1ncc(CO)c(C2NOCc3nscc32)c1O (stereo not given)
T/C (dose: 3.5 mg/kg/injection, schedule: Q04DX003 (ip), vehicle: saline): 100 % of control
T/C (dose: 7.0 mg/kg/injection, schedule: Q04DX003 (ip), vehicle: saline): 95 % of control
T/C (dose: 14.0 mg/kg/injection, schedule: Q04DX003 (ip), vehicle: saline): 100 % of control
